Data: patent US20090155797A1, “Methods For Generating Enhanced Antibody-Producing Cell Lines With Improved Growth Characteristics” (priority 2002, published 2009)

Tested on: H34 cells
Assay: Antibody production by ELISA from H34 hybridoma cells incubated with protease inhibitor
Type: cell-based, mouse
Settings: H34 cells incubated 1-3 days with 4 mM AEBSF in 96 well plates, supernatant ELISA; untreated H34 4.3 ug/ml

NCCc1ccc(S(=O)(=O)F)cc1 [AEBSF, 4-(2-aminoethyl)-benzenesulfonyl floride]
ANTIBODY PRODUCTION TREATED: 0.031 µg/mL
